From publication PMC8286840, “Identifying SARS-CoV-2 antiviral compounds by screening for small molecule inhibitors of Nsp3 papain-like protease” (Biochemical Journal, 2021)
Structures can show the parent of a compound that is named as a salt. Where two headings read alike, the source gives them in different places.

What was measured:
[1] = biological target: T1, SARS-CoV-2 PLpro (nsp3 1564–1878) (Severe acute respiratory syndrome coronavirus 2, UniProt P0DTD1); experiment: biochemical; set-up: FRET-quenched peptide (Pro3) cleavage by PLpro, 10 min pre-incubation, slope over 20 min, normalised to no-compound control; conditions: low concentration screen, read-out: % of control remaining
[2] = biological target: T1, SARS-CoV-2 PLpro (nsp3 1564–1878); experiment: biochemical; set-up: FRET-quenched peptide (Pro3) cleavage by PLpro, 10 min pre-incubation, slope over 20 min, normalised to no-compound control; conditions: high concentration screen, read-out: % of control remaining

SMILES: CN(C)[C@@H](CCOc1cccc2ccccc12)c1ccccc1 [Dapoxetine hydrochloride]
- remaining activity at 1.25 µM ([1]; Well no.=5853): 94.2%
- remaining activity at 3.75 µM ([2]; Well no.=5853): 91%

SMILES: O=C(CCCCCCNC(=O)c1cnc(N(c2ccccc2)c2ccccc2)nc1)NO [Rocilinostat (ACY-1215)]
- remaining activity at 1.25 µM ([1]; Well no.=4786): 101%
- remaining activity at 3.75 µM ([2]; Well no.=4786): 102%

SMILES: CC1(C)C=C(CN2C/C(=C\c3ccc(F)cc3)C(=O)/C(=C/c3ccc(F)cc3)C2)C(C)(C)N1O [HO-3867]
- remaining activity at 1.25 µM ([1]; Well no.=8518): 101%
- remaining activity at 3.75 µM ([2]; Well no.=8518): 102%

SMILES: COc1ccc2cccc(CCNC(C)=O)c2c1 [Agomelatine]
- remaining activity at 1.25 µM ([1]; Well no.=5143): 100%
- remaining activity at 1.25 µM ([1]; Well no.=7340): 99.9%
- remaining activity at 3.75 µM ([2]; Well no.=5143): 100%
- remaining activity at 3.75 µM ([2]; Well no.=7340): 102%

SMILES: CN(C)C(=O)Oc1cc(OC(=O)N(C)C)cc(C(O)CNC(C)(C)C)c1 (stereo not drawn) [Bambuterol (hydrochloride)]
- remaining activity at 1.25 µM ([1]; Well no.=6617): 100%
- remaining activity at 3.75 µM ([2]; Well no.=6617): 101%

SMILES: CC(N)c1cccc(Cl)c1Cl (racemic)
- remaining activity at 1.25 µM ([1]; Well no.=734): 92.1%
- remaining activity at 3.75 µM ([2]; Well no.=734): 94.8%

SMILES: CC(C)NCC(O)COc1ccc(CC(N)=O)cc1 (racemic)
- remaining activity at 1.25 µM ([1]; Well no.=196): 96.7%
- remaining activity at 3.75 µM ([2]; Well no.=196): 99.1%

SMILES: CCCCOc1ccc(C(=O)CCN2CCCCC2)cc1 [Dyclonine HCl]
- remaining activity at 1.25 µM ([1]; Well no.=5050): 103%
- remaining activity at 3.75 µM ([2]; Well no.=5050): 101%

SMILES: Nc1nc(-c2nn(Cc3ccccc3F)c3ncccc23)ncc1C1CC1 [BAY 41-2272]
- remaining activity at 1.25 µM ([1]; Well no.=7717): 102%
- remaining activity at 3.75 µM ([2]; Well no.=7717): 94.6%

SMILES: O=C(O)c1c(O)cccc1O [2,6-Dihydroxybenzoic acid]
- remaining activity at 1.25 µM ([1]; Well no.=6921): 108%
- remaining activity at 3.75 µM ([2]; Well no.=6921): 105%

SMILES: Nc1nccc2c1ncn2[C@@H]1O[C@H](CO)[C@@H](O)[C@H]1O [3-deazaadenosine]
- remaining activity at 1.25 µM ([1]; Well no.=488): 94.5%
- remaining activity at 3.75 µM ([2]; Well no.=488): 95.2%

SMILES: COc1ccc(CNc2nc(N(CCO)CCO)nc3c2ncn3C(C)C)cc1 [Cdk2 Inhibitor III]
- remaining activity at 1.25 µM ([1]; Well no.=2416): 107%
- remaining activity at 3.75 µM ([2]; Well no.=2416): 110%

SMILES: NC1CCc2cc(O)c(O)cc2C1 (stereo not drawn) [6,7-ADTN hydrobromide]
- remaining activity at 1.25 µM ([1]; Well no.=444): 101%
- remaining activity at 3.75 µM ([2]; Well no.=444): 104%

SMILES: CCOC(=O)OC(C)OC1=C(C(=O)Nc2ccccn2)N(C)S(=O)(=O)c2ccccc21 (stereo not drawn) [Ampiroxicam]
- remaining activity at 1.25 µM ([1]; Well no.=2125): 101%
- remaining activity at 3.75 µM ([2]; Well no.=2125): 103%

SMILES: Nc1ccc(CCNc2ncnc3c2ncn3[C@@H]2O[C@H](CO)[C@@H](O)[C@H]2O)cc1 [N6-2-(4-Aminophenyl)ethyladenosine]
- remaining activity at 1.25 µM ([1]; Well no.=162): 94.9%
- remaining activity at 3.75 µM ([2]; Well no.=162): 98%

SMILES: CN1[C@@H](CC(=O)c2ccccc2)CCC[C@H]1C[C@H](O)c1ccccc1 [alpha-Lobeline hydrochloride]
- remaining activity at 1.25 µM ([1]; Well no.=1025): 98.8%
- remaining activity at 3.75 µM ([2]; Well no.=1025): 102%

SMILES: CC(=O)NBr [N-Bromoacetamide]
- remaining activity at 1.25 µM ([1]; Well no.=171): 101%
- remaining activity at 3.75 µM ([2]; Well no.=171): 98.1%

SMILES: COc1cc(/C=C/C(=O)N2CCN(CC(=O)N3CCCC3)CC2)cc(OC)c1OC [Cinepazide maleate]
- remaining activity at 1.25 µM ([1]; Well no.=5271): 95.9%
- remaining activity at 3.75 µM ([2]; Well no.=5271): 96.6%

SMILES: C[C@H](NC(=O)Cc1cc(F)cc(F)c1)C(=O)N[C@@H]1C(=O)N(C)c2ccccc2-c2ccccc21 [YO-01027]
- remaining activity at 1.25 µM ([1]; Well no.=4687): 101%
- remaining activity at 3.75 µM ([2]; Well no.=4687): 105%

SMILES: Cc1ncc(Cl)cc1NCc1ccc(C(=O)N[C@@H](CC2CCCC2)C(=O)NC2CC2)s1 [(S)-5-(((5-chloro-2-methylpyridin-3-yl)amino)methyl)-N-(3-cyclopentyl-1-(cyclopropylamino)-1-oxopropan-2-yl)thiophene-2-carboxamide]
- remaining activity at 1.25 µM ([1]; Well no.=5550): 94.4%
- remaining activity at 3.75 µM ([2]; Well no.=5550): 99.3%

SMILES: CN(C)C(=O)Nc1cccc(-c2ccc(N(C)C)cc2)c1 [Atglistatin]
- remaining activity at 1.25 µM ([1]; Well no.=5396): 98.8%
- remaining activity at 3.75 µM ([2]; Well no.=5396): 81.1%

SMILES: CCCCCCCCCCCCC/C=C/[C@@H](O)[C@H](CO)NC(C)=O [C2 Ceramide]
- remaining activity at 1.25 µM ([1]; Well no.=4363): 108%
- remaining activity at 3.75 µM ([2]; Well no.=4363): 104%

SMILES: COc1ccc2cc([C@@H](C)C(=O)O)ccc2c1 [(-)-Naproxen sodium]
- remaining activity at 1.25 µM ([1]; Well no.=1110): 95.3%
- remaining activity at 3.75 µM ([2]; Well no.=1110): 97.6%

SMILES: CC[C@@]1(O)C(=O)OCc2c1cc1n(c2=O)Cc2cc3ccccc3nc2-1 [(S)-(+)-Camptothecin]
- remaining activity at 1.25 µM ([1]; Well no.=483): 100%
- remaining activity at 3.75 µM ([2]; Well no.=483): 90.7%

SMILES: CCCCCCCCCCCCCC(=O)O[C@@H]1[C@@H](C)[C@@]2(O)[C@@H](C=C(CO)C[C@@]3(O)C(=O)C(C)=C[C@@H]23)[C@@H]2C(C)(C)[C@]12OC(C)=O (racemic)
- remaining activity at 1.25 µM ([1]; Well no.=3080): 98.8%
- remaining activity at 3.75 µM ([2]; Well no.=3080): 98.9%

SMILES: Ic1ccc(N2CCN(Cc3c[nH]c4ncccc34)CC2)cc1 [L-750,667 trihydrochloride]
- remaining activity at 1.25 µM ([1]; Well no.=774): 102%
- remaining activity at 3.75 µM ([2]; Well no.=774): 106%

SMILES: COc1cc2nc(N3CCN(C(=O)C4CCCO4)CC3)nc(N)c2cc1OC (stereo not drawn) [Terazosin hydrochloride]
- remaining activity at 1.25 µM ([1]; Well no.=1241): 98.7%
- remaining activity at 3.75 µM ([2]; Well no.=1241): 92.5%

SMILES: Cc1ccc(N(CC2=NCCN2)c2cccc(O)c2)cc1 [Phentolamine (mesylate)]
- remaining activity at 1.25 µM ([1]; Well no.=7326): 93.7%
- remaining activity at 3.75 µM ([2]; Well no.=7326): 90%

SMILES: CCCCC[C@H](O)/C=C/[C@H]1[C@H](O)CC(=O)[C@@H]1C/C=C\CCCC(=O)O [Prostaglandin E2]
- remaining activity at 1.25 µM ([1]; Well no.=1625): 100%
- remaining activity at 1.25 µM ([1]; Well no.=3092): 98.6%
- remaining activity at 1.25 µM ([1]; Well no.=4477): 99.7%
- remaining activity at 1.25 µM ([1]; Well no.=6151): 106%
- remaining activity at 1.25 µM ([1]; Well no.=8105): 94.3%
- remaining activity at 3.75 µM ([2]; Well no.=1625): 103%
- remaining activity at 3.75 µM ([2]; Well no.=3092): 101%
- remaining activity at 3.75 µM ([2]; Well no.=6151): 110%
- remaining activity at 3.75 µM ([2]; Well no.=8105): 95.4%

SMILES: COc1ccc(/C=C\c2cc(OC)c(OC)c(OC)c2)cc1OP(=O)(O)O [Fosbretabulin disodium]
- remaining activity at 1.25 µM ([1]; Well no.=5660): 95.9%
- remaining activity at 3.75 µM ([2]; Well no.=5660): 90.4%

SMILES: COc1cc2ncnc(N3CCN(C(=O)Nc4ccc(Oc5ccccc5)cc4)CC3)c2cc1OC [PDGF Receptor Tyrosine Kinase Inhibitor III]
- remaining activity at 1.25 µM ([1]; Well no.=2505): 104%
- remaining activity at 3.75 µM ([2]; Well no.=2505): 106%

SMILES: CC(=O)OCC[N+](C)(C)C [Acetylcholine]
- remaining activity at 1.25 µM ([1]; Well no.=1550): 96.7%
- remaining activity at 3.75 µM ([2]; Well no.=1550): 98.7%

SMILES: Cc1c(COc2cc(OCc3cccc(C#N)c3)c(CN3C[C@H](O)C[C@@H]3C(=O)O)cc2Cl)cccc1-c1ccc2c(c1)OCCO2 [BMS-1166]
- remaining activity at 1.25 µM ([1]; Well no.=8310): 96.7%
- remaining activity at 3.75 µM ([2]; Well no.=8310): 96.4%
